Experimental data as given in patent US9346761B2, “Arginine methyltransferase inhibitors and uses thereof” (Epizyme, Inc., priority 2013, dated 2016).
Counter-ions that a name gives are not always drawn.

Biological target: T1, Human CARM1 (PRMT4) (Homo sapiens, UniProt Q86X55)
T1 construct: Flag-CARM1-His was eluted with 200 ug/ml FLAG peptide in buffer A; made in house; host or cells: HEK 293F cells (BacMam virus, pFastBacMam)
T1 sequence (Q86X55 with tags, fused parts or gaps isoform Q86X55-1): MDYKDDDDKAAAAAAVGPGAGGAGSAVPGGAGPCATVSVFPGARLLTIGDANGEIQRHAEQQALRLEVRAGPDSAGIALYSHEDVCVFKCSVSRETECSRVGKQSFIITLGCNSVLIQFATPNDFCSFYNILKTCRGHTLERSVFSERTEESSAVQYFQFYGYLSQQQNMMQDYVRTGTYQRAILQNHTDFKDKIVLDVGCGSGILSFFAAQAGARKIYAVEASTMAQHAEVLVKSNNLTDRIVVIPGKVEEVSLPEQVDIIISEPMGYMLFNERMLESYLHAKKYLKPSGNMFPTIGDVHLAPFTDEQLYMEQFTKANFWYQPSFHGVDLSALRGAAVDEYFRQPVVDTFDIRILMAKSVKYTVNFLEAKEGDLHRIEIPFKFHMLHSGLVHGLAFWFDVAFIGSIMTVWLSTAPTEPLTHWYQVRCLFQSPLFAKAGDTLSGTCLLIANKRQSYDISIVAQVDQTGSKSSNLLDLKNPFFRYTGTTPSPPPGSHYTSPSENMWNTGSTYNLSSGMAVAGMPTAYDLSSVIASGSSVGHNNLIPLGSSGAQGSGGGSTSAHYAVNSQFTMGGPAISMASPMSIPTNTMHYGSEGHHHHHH
Test: CARM1 biochemical assay (3H-SAM Flashplate, peptide substrate)
Text: General Materials. S-adenosylmethionine (SAM), S-adenosylhomocysteine (SAH), bicine, Tween20, dimethylsulfoxide (DMSO), bovine skin gelatin (BSG), sodium butyrate and Tris(2-carboxyethyl)phosphine hydrochloride solution (TCEP) were purchased from Sigma-Aldrich at the highest level of purity possible. ^3H-SAM was purchase from American Radiolabeled Chemicals with a specific activity of 80 Ci/mmol. 384-well streptavidin Flashplates were purchased from PerkinElmer.
Substrates. Peptide representative of human histone H3 residues 16-30 was synthesized with an N-terminal linker-affinity tag motif and a C-terminal amide cap by 21st Century Biochemicals.
Protein Expression. Recombinant baculovirus were generated according to Bac-to-Bac kit instructions (Life Technologies). […] Infections were carried out at 37° C. for 48 hours, harvested by centrifugation, and stored at −80° C. for purification.
Protein Purification. […] Column was washed with 500 mM NaCl in buffer A and Flag-CARM1-His was eluted with 200 ug/ml FLAG peptide in buffer A. Pooled fractions were dialyzed in 20 mM Tris, 150 mM NaCl, 5% glycerol and 1 mM DTT, pH 7.8.
General Procedure for CARM1 Enzyme Assays on Peptide Substrates. The assays were all performed in a buffer consisting of 20 mM Bicine (pH=7.6), 1 mM TCEP, 0.005% BSG, and 0.002% Tween 20, prepared on the day of use. […] DMSO (1 ul) was added to Columns 11, 12, 23, 24, rows A-H for the maximum signal control and 1 ul of SAH, a known product and inhibitor of CARM1, was added to columns 11, 12, 23, 24, rows I-P for the minimum signal control. A cocktail (40 ul) containing the CARM1 enzyme was added by Multidrop Combi (Thermo-Fisher). The compounds were allowed to incubate with CARM1 for 30 min at room temperature, then a cocktail (10 ul) containing ^3H-SAM and peptide was added to initiate the reaction (final volume=51 ul). […] The assays were stopped by the addition of non-radiolabeled SAM (10 ul) to a final concentration of 300 uM, which dilutes the ^3H-SAM to a level where its incorporation into the peptide substrate is no longer detectable. 50 ul of the reaction in the 384-well polypropylene plate was then transferred to a 384-well Flashplate and the biotinylated peptides were allowed to bind to the streptavidin surface for at least 1 hour before being washed once with 0.1% Tween20 in a Biotek ELx405 plate washer. The plates were then read in a PerkinElmer TopCount plate reader to measure the quantity of ^3H-labeled peptide bound to the Flashplate surface, measured as disintegrations per minute (dpm) or alternatively, referred to as counts per minute (cpm).
Where dpm=disintegrations per minute, cmpd=signal in assay well, and min and max are the respective minimum and maximum signal controls.
Where top and bottom are the normally allowed to float, but may be fixed at 100 or 0 respectively in a 3-parameter fit. The Hill Coefficient normally allowed to float but may also be fixed at 1 in a 3-parameter fit. Y is the % inhibition and X is the compound concentration.

## CNCCN(C)Cc1cn(C2CC2)nc1-c1ccc(F)cc1 [Compound 13]
  IC50: 1010 to 3000 nM

## CNCCN(C)Cc1cnn(C2CC2)c1-c1ccc(F)cc1 [Compound 14]
  IC50: 101 to 1000 nM

## CNCCN(C)Cc1cn(C(C)C)nc1-c1ccc(F)cc1 [Compound 15]
  IC50: 3010 to 10000 nM

## CNCCN(C)Cc1cnn(C(C)C)c1-c1ccc(F)cc1 [Compound 16]
  IC50: 3010 to 10000 nM

## CNCCN(C)Cc1cn[nH]c1-c1ccc(C#N)cc1 [Compound 17]
  IC50: 1010 to 3000 nM

## CNCCN(C)Cc1cn[nH]c1-c1cc(F)cc(F)c1 [Compound 18]
  IC50: 101 to 1000 nM

## CCCc1ccc(-c2n[nH]cc2CN(C)CCNC)cc1 [Compound 20]
  IC50: 101 to 1000 nM

## CNCCN(C)Cc1c[nH]nc1-c1cccc([N+](=O)[O-])c1 [Compound 21]
  IC50: 1010 to 3000 nM

## CNCCN(C)Cc1c[nH]nc1-c1cccc(C#N)c1 [Compound 22]
  IC50: 1010 to 3000 nM

## CNCCN(C)Cc1c[nH]nc1-c1ccccc1OC [Compound 23]
  IC50: 1010 to 3000 nM

## CNCCN(C)Cc1c[nH]nc1-c1cccc(OC)c1 [Compound 24]
  IC50: 1010 to 3000 nM

## CNCCN(C)Cc1c[nH]nc1-c1ccc(OC)cc1 [Compound 25]
  IC50: 1010 to 3000 nM

## CNCCN(C)Cc1c[nH]nc1-c1cccc(O)c1 [Compound 26]
  IC50: 1010 to 3000 nM

## CNCCN(C)Cc1c[nH]nc1-c1ccc(O)cc1 [Compound 27]
  IC50: 1010 to 3000 nM

## CNCCN(C)Cc1c[nH]nc1-c1ccc(CO)cc1 [Compound 28]
  IC50: 101 to 1000 nM

## CNCCN(C)Cc1c[nH]nc1-c1ccc(C)cc1C [Compound 29]
  IC50: 3010 to 10000 nM

## CNCCN(C)Cc1cn(CCCC(O)CO)nc1-c1ccc(F)cc1 (centres unmarked) [Compound 30]
  IC50: 3010 to 10000 nM

## CNCCN(C)Cc1cnn(CCCC(O)CO)c1-c1ccc(F)cc1 (centres unmarked) [Compound 31]
  IC50: 1010 to 3000 nM

## CNCCN(C)Cc1c[nH]nc1-c1ccc(N)cc1 [Compound 33]
  IC50: 1010 to 3000 nM

## CNCCN(C)Cc1c[nH]nc1-c1ccc(Oc2ccccc2)cc1 [Compound 37]
  IC50: < 100 nM

## CNCCN(C)Cc1c[nH]nc1-c1ccccc1C(F)(F)F [Compound 38]
  IC50: > 10000 nM

## CNCCN(C)Cc1c[nH]nc1-c1ccccc1OC(F)(F)F [Compound 40]
  IC50: > 10000 nM

## CCNC(=O)c1cccc(-c2n[nH]cc2CN(C)CCNC)c1 [Compound 43]
  IC50: 3010 to 10000 nM

## CCn1cc(CN(C)CCNC)c(-c2ccc(OC(C)C)cc2)n1 [Compound 213]
  IC50: 101 to 1000 nM

## CNCCN(C)Cc1cn(C2CCCC2)nc1-c1ccc(OC(C)C)cc1 [Compound 214]
  IC50: 101 to 1000 nM

## CNCCN(C)Cc1cn(C2CCOC2)nc1-c1ccc(OC(C)C)cc1 (centres unmarked) [Compound 215]
  IC50: 101 to 1000 nM

## CNCCN(C)Cc1cnn(C2CCOC2)c1-c1ccc(OC(C)C)cc1 (centres unmarked) [Compound 216]
  IC50: 101 to 1000 nM

## CNCCN(C)Cc1cn(Cc2ccccc2)nc1-c1ccc(OC(C)C)cc1 [Compound 217]
  IC50: 101 to 1000 nM

## C=CCn1cc(CN(C)CCNC)c(-c2ccc(OC(C)C)cc2)n1 [Compound 218]
  IC50: 101 to 1000 nM

## C=CCn1ncc(CN(C)CCNC)c1-c1ccc(OC(C)C)cc1 [Compound 219]
  IC50: 101 to 1000 nM

## CNCCN(C)Cc1cn(C)nc1-c1ccc(OC(C)C)cc1 [Compound 243, N1-((3-(4-isopropoxyphenyl)-1-methyl-1H-pyrazol-4-yl)methyl)-N1,N2-dimethylethane-1,2-diamine]
  IC50: 101 to 1000 nM

## CNCCN(C)Cc1cn(Cc2cccnc2)nc1-c1ccc(OC(C)C)cc1 [Compound 246]
  IC50: 1010 to 3000 nM

## CNCCN(C)Cc1cn(Cc2ccccn2)nc1-c1ccc(OC(C)C)cc1 [Compound 247]
  IC50: 1010 to 3000 nM

## CNCCN(C)Cc1cn(CC(=O)OC)nc1-c1ccc(OC(C)C)cc1 [Compound 248]
  IC50: 3010 to 10000 nM

## CNCCN(C)Cc1cnn(CC(=O)OC)c1-c1ccc(OC(C)C)cc1 [Compound 249]
  IC50: 3010 to 10000 nM

## CNCCN(C)Cc1cn(CC(=O)O)nc1-c1ccc(OC(C)C)cc1 [Compound 250]
  IC50: > 10000 nM

## CNCCN(C)Cc1cn(CC(N)=O)nc1-c1ccc(OC(C)C)cc1 [Compound 251]
  IC50: 1010 to 3000 nM

## CCn1ncc(CN(C)CCNC)c1-c1ccc(OC(C)C)cc1 [Compound 252]
  IC50: 101 to 1000 nM

## CNCCN(C)Cc1cn(CCOC)nc1-c1ccc(OC(C)C)cc1 [Compound 253, N1-((3-(4-isopropoxyphenyl)-1-(2-methoxyethyl)-1H-pyrazol-4-yl)methyl)-N1,N2-dimethylethane-1,2-diamine hydrochloride]
  IC50: 1010 to 3000 nM

## CNCCN(C)Cc1cn(C2CCC2)nc1-c1ccc(OC(C)C)cc1 [Compound 254, N1-((1-cyclobutyl-3-(4-isopropoxyphenyl)-1H-pyrazol-4-yl)methyl)-N1,N2-dimethylethane-1,2-diamine hydrochloride]
  IC50: 101 to 1000 nM

## CNCCN(C)Cc1cnn(C2CCCC2)c1-c1ccc(OC(C)C)cc1 [Compound 255]
  IC50: 1010 to 3000 nM

## CNCCN(C)Cc1cn(C2CCCCC2)nc1-c1ccc(OC(C)C)cc1 [Compound 256]
  IC50: 101 to 1000 nM

## C=C(C)C(=O)Nc1cccc(-c2[nH]ncc2CN(C)CCNC)c1 [Compound 257]
  IC50: > 10000 nM

## C=CC(=O)Nc1cccc(-c2[nH]ncc2CN(C)CCNC)c1 [Compound 258]
  IC50: 1010 to 3000 nM
